# Measurements reported in patent publication US9675659B2 (Trilogy Therapeutics, Inc., priority 2015, dated 2017).
# Like-named read-outs stand apart in the source and are kept apart here. Starred links: 1 amine or outer side, 2 acyl side, 3 side chain; linkers in the order of their positions; H or OH if unused. Positions of bridges follow the written chain, without caps; N, C: chain ends. Non-standard residues stand in square brackets, D forms with d. Residues, ends and D or L forms follow the SMILES beside them. *: point of attachment. hTyr(3S-OH,4S-OH,3'-OSO3H) = N[C@H](C(=O)O)[C@H](O)[C@@H](O)c1ccc(O)c(OS(=O)(=O)O)c1; pTerphenylCO(4''-OnC5H11) = CCCCCOc1ccc(-c2ccc(-c3ccc(C(=O)*)cc3)cc2)cc1; Orn(4R-OH,5R-OH) = O=C([C@H](C[C@@H](O)[C@@H](O)N[*:3])N[*:1])[*:2]; hTyr(3S-OH,4S-OH) = N[C@H](C(=O)O)[C@H](O)[C@@H](O)c1ccc(O)cc1; Pro(3S-OH,4S-Me) = C[C@H]1CN[C@H](C(=O)O)[C@H]1O; X1 = CCCCCOc1ccc(-c2cc(-c3ccc(C(=O)*)cc3)no2)cc1; Gln(3R-OH) = NC(=O)C[C@@H](O)[C@H](N)C(=O)O; Hyp = O=C(O)[C@@H]1C[C@@H](O)CN1
# What was measured:
# [1] = test system: Candida krusei; settings: 136 isolates; cited from earlier work
# [2] = test system: Aspergillus terrus; settings: 11 isolates; cited from earlier work
# [3] = test system: Aspergillus flavus; settings: 13 isolates; cited from earlier work
# [4] = test system: Aspergillus flavus; settings: 432 isolates; cited from earlier work
# [5] = test system: Aspergillus nidulans; settings: 13 isolates; cited from earlier work
# [6] = test system: Candida tropicalis; settings: 625 isolates; cited from earlier work
# [7] = test system: Aspergillus fumigatus; settings: 1691 isolates; cited from earlier work
# [8] = test system: Aspergillus niger; settings: 10 isolates; cited from earlier work
# [9] = test system: Candida parapsilosis; settings: 759 isolates; cited from earlier work
# [10] = test system: Aspergillus fumigatus; settings: 56 isolates; cited from earlier work
# [11] = test system: Candida galbrata; settings: 747 isolates; cited from earlier work
# [12] = test system: Candida guilliermondii; settings: 61 isolates; cited from earlier work
# [13] = test system: Candida albicans; settings: 2869 isolates; cited from earlier work
# [14] = test system: Aspergillus nidulans; settings: 192 isolates; cited from earlier work
# [15] = test system: Aspergillus terrus; settings: 385 isolates; cited from earlier work
# [16] = rat, 2 mg/kg, cited from earlier work
# [17] = test system: Aspergillus niger; settings: 440 isolates; cited from earlier work
# [18] = test system: Aspergillus versicolor; settings: 75 isolates; cited from earlier work
# [19] = Toxicology observations in the rat inhalation/IV study (mortality, clinical signs, body weight, necropsy); assay type: in vivo; settings: male rats, nose-only inhalation or intravenous injection, 2 mg/kg
# Description: A detailed, hand-held physical examination was conducted on all animals once during the quarantine period (prior to randomization). During the treatment period, the animals were observed daily for mortality or evidence of moribundity; these checks were separated by a minimum of four hours. Daily cage-side clinical observations were conducted during exposure, and daily hand-held clinical observations were conducted before and after exposure. Observations included, but were not limited to the following: changes in the skin and fur, eyes, and mucous membranes; effects on the respiratory, circulatory, autonomic and central nervous systems; and effects on somatomotor activity and behavior pattern.
# Body Weights and Body Weight Changes: Body weights were determined one day after animal receipt; at randomization; and prior to exposure on Study Day 1, 2, 3 and 7 (as applicable based on scheduled euthanization).
# [20] = in vivo; settings: Sprague-Dawley, rat
# Description: Tissue specimens (lung, liver and kidney) were collected from three animals per time point at 0.5, 2, 24 and 48 hours and 7 days after dose administration. All tissue specimens were stored frozen at approximately −70° C. until analyzed.
# In Vivo Details: Thirty Sprague-Dawley derived rats [Crl:CD®(CD)Br] were obtained from Charles River Laboratories, Inc., Wilmington, Mass., for use in this study. The rats were 52 days of age (approximately 7.5 weeks) upon arrival. One day following receipt, body weights of the rats ranged from 171 g to 213 g. The animals were held in quarantine for 7 days prior to administration of the test article. […] Before being released from quarantine, the animals were given a detailed, hand-held physical examination to ensure their health and suitability as test subjects. The test animals were approximately 8.5 weeks old at the start of the first exposure to the test article.
# The resulting solution was aseptically filtered and kept refrigerated between 2-8° C. until used.
# Test Article Dosing: The animals were randomized into two groups of 15 animals based on body weight.
# Inhalation Exposure Methods:
# All study animals surviving to scheduled necropsy were euthanized by an overdose of an intraperitoneal injection of sodium pentobarbital at 35-45 mg/kg. Tissue specimens (lung, liver and kidney) were collected from three animals per time point at 0.5, 2, 24 and 48 hours and 7 days after dose administration. All tissue specimens were stored frozen at approximately −70° C. until analyzed.
# After shaking for five minutes, the sample was centrifuged at 4° C. for 10 minutes to remove precipitated proteins and supernatant was transferred to an autosampler tube, diluted with 0.5 mL of water, and vortex-mixed for instrumental analysis.
# Subsequently, 100 μL of the supernatant was transferred to a 2 mL centrifuge tube and processed for analysis using the same procedure as for plasma.
# Tissue results in ng were converted to g/g using the amount of tissue extracted and the final extract volume.
# [21] = cited from earlier work
# [22] = rat, intravenous; cited from earlier work
smiles,measurement,setting,value
"CC[C@H](C)C[C@H](C)CCCCCCCCC(=O)N[C@H]1C[C@@H](O)[C@@H](NCCN)NC(=O)[C@@H]2[C@@H](O)CCN2C(=O)[C@H]([C@H](O)CCN)NC(=O)[C@H]([C@H](O)[C@@H](O)c2ccc(O)cc2)NC(=O)[C@@H]2C[C@@H](O)CN2C(=O)[C@H]([C@@H](C)O)NC1=O [Caspofungin, caspofungin]",MIC90,[1],0.06 µg/mL
same,MIC90 Average (Geometric Mean MIC),[2],0.12 µg/mL
same,MIC90 Range,[2],0.06 to .2 µg/mL
same,MIC90 Average (Geometric Mean MIC),[3],0.2 µg/mL
same,MIC90 Range,[3],0.06 to 2 µg/mL
same,"MEC Average (Mode, most frequent MEC)",[4],0.06 µg/mL
same,MEC Range,[4],0.016 to 32 µg/mL
same,MIC90 Average (Geometric Mean MIC),[5],0.44 µg/mL
same,MIC90 Range,[5],0.2 to 4 µg/mL
same,MIC90,[6],0.06 µg/mL
same,"MEC Average (Mode, most frequent MEC)",[7],0.25 µg/mL
same,MEC Range,[7],0.016 to 32 µg/mL
same,MIC90 Average (Geometric Mean MIC),[8],0.14 µg/mL
same,MIC90 Range,[8],0.06 to 0.5 µg/mL
same,MIC90,[9],2 µg/mL
same,MIC90 Average (Geometric Mean MIC),[10],0.25 µg/mL
same,MIC90 Range,[10],0.12 to 4 µg/mL
same,MIC90,[11],0.12 µg/mL
same,MIC90,[12],2 µg/mL
same,MIC90,[13],0.06 µg/mL
same,"MEC Average (Mode, most frequent MEC)",[14],0.12 µg/mL
same,MEC Range,[14],0.032 to 16 µg/mL
same,"MEC Average (Mode, most frequent MEC)",[15],0.06 µg/mL
same,MEC Range,[15],0.016 to 2 µg/mL
same,"Kidney concentration, Stone 2004 (radiolabeled compound)",[16]; 0.5 h,9.15 µg/g
same,"Liver concentration, Stone 2004 (radiolabeled compound)",[16]; 0.5 h,5.03 µg/g
same,"Lung concentration, Stone 2004 (radiolabeled compound)",[16]; 0.5 h,5.12 µg/g
same,"Plasma concentration, Stone 2004 (radiolabeled compound)",[16]; 0.5 h,11000 ng/mL
same,"Kidney concentration, Stone 2004 (radiolabeled compound)",[16]; 2 h,10.60 µg/g
same,"Liver concentration, Stone 2004 (radiolabeled compound)",[16]; 2 h,7.04 µg/g
same,"Lung concentration, Stone 2004 (radiolabeled compound)",[16]; 2 h,4.50 µg/g
same,"Plasma concentration, Stone 2004 (radiolabeled compound)",[16]; 2 h,6100 ng/mL
same,"Kidney concentration, Stone 2004 (radiolabeled compound)",[16]; 24 h,11.40 µg/g
same,"Liver concentration, Stone 2004 (radiolabeled compound)",[16]; 24 h,22.20 µg/g
same,"Lung concentration, Stone 2004 (radiolabeled compound)",[16]; 24 h,2.44 µg/g
same,"Plasma concentration, Stone 2004 (radiolabeled compound)",[16]; 24 h,1740 ng/mL
same,"MEC Average (Mode, most frequent MEC)",[17],0.06 µg/mL
same,MEC Range,[17],0.016 to 2 µg/mL
same,"MEC Average (Mode, most frequent MEC)",[18],0.12 µg/mL
same,MEC Range,[18],0.032 to 2 µg/mL
same,clinical signs of toxicity,[19],no clinical signs of toxicity
same,effects on body weight,[19],no effects on body weight
same,gross necropsy findings,[19],no gross necropsy findings attributable to exposure to the test article
same,test-article related mortality,[19],no test-article related mortality
same,concentration at 0.5 h,"[20]; kidney, inhaled, 2 mg/kg",160 ng/g
same,concentration at 2 h,"[20]; kidney, inhaled, 2 mg/kg",160 ng/g
same,concentration at 24 h,"[20]; kidney, inhaled, 2 mg/kg",160 ng/g
same,concentration at 48 h,"[20]; kidney, inhaled, 2 mg/kg",120 ng/g
same,concentration at 168 h,"[20]; kidney, inhaled, 2 mg/kg",20 ng/g
same,concentration at 0.5 h,"[20]; kidney, iv, 2 mg/kg",500 ng/g
same,concentration at 2 h,"[20]; kidney, iv, 2 mg/kg",670 ng/g
same,concentration at 24 h,"[20]; kidney, iv, 2 mg/kg",500 ng/g
same,concentration at 0.5 h,"[20]; liver, inhaled, 2 mg/kg",90 ng/g
same,concentration at 2 h,"[20]; liver, inhaled, 2 mg/kg",130 ng/g
same,concentration at 24 h,"[20]; liver, inhaled, 2 mg/kg",300 ng/g
same,concentration at 48 h,"[20]; liver, inhaled, 2 mg/kg",180 ng/g
same,concentration at 168 h,"[20]; liver, inhaled, 2 mg/kg",20 ng/g
same,concentration at 0.5 h,"[20]; liver, iv, 2 mg/kg",250 ng/g
same,concentration at 2 h,"[20]; liver, iv, 2 mg/kg",310 ng/g
same,concentration at 24 h,"[20]; liver, iv, 2 mg/kg",660 ng/g
same,concentration at 0 h,"[20]; lung, inhaled, 2 mg/kg",10800 ng/g
same,concentration at 0.5 h,"[20]; lung, inhaled, 2 mg/kg",10800 ng/g
same,concentration at 2 h,"[20]; lung, inhaled, 2 mg/kg",10400 ng/g
same,concentration at 24 h,"[20]; lung, inhaled, 2 mg/kg",5310 ng/g
same,concentration at 39 h,"[20]; lung, inhaled, 2 mg/kg",5420 ng/g
same,concentration at 48 h,"[20]; lung, inhaled, 2 mg/kg",3370 ng/g
same,concentration at 78 h,"[20]; lung, inhaled, 2 mg/kg",2710 ng/g
same,concentration at 117 h,"[20]; lung, inhaled, 2 mg/kg",1350 ng/g
same,concentration at 156 h,"[20]; lung, inhaled, 2 mg/kg",680 ng/g
same,concentration at 168 h,"[20]; lung, inhaled, 2 mg/kg",390 ng/g
same,concentration at 195 h,"[20]; lung, inhaled, 2 mg/kg",340 ng/g
same,concentration at 273 h,"[20]; lung, inhaled, 2 mg/kg",80 ng/g
same,concentration at 312 h,"[20]; lung, inhaled, 2 mg/kg",40 ng/g
same,concentration at 351 h,"[20]; lung, inhaled, 2 mg/kg",20 ng/g
same,concentration at 0 h,"[20]; lung, inhaled, 7.2 mg/kg",39000 ng/g
same,concentration at 39 h,"[20]; lung, inhaled, 7.2 mg/kg",19500 ng/g
same,concentration at 78 h,"[20]; lung, inhaled, 7.2 mg/kg",9750 ng/g
same,concentration at 117 h,"[20]; lung, inhaled, 7.2 mg/kg",4880 ng/g
same,concentration at 156 h,"[20]; lung, inhaled, 7.2 mg/kg",2440 ng/g
same,concentration at 195 h,"[20]; lung, inhaled, 7.2 mg/kg",1220 ng/g
same,concentration at 273 h,"[20]; lung, inhaled, 7.2 mg/kg",300 ng/g
same,concentration at 312 h,"[20]; lung, inhaled, 7.2 mg/kg",150 ng/g
same,concentration at 351 h,"[20]; lung, inhaled, 7.2 mg/kg",80 ng/g
same,concentration at 0.5 h,"[20]; lung, iv, 2 mg/kg",590 ng/g
same,concentration at 2 h,"[20]; lung, iv, 2 mg/kg",540 ng/g
same,concentration at 24 h,"[20]; lung, iv, 2 mg/kg",180 ng/g
same,concentration at 48 h,"[20]; lung, iv, 2 mg/kg",90 ng/g
same,concentration at 168 h,"[20]; lung, iv, 2 mg/kg",0 ng/g
same,concentration at 0.5 h,"[20]; plasma, inhaled, 2 mg/kg",2030 ng/mL
same,concentration at 24 h,"[20]; plasma, inhaled, 2 mg/kg",230 ng/mL
same,concentration at 48 h,"[20]; plasma, inhaled, 2 mg/kg",80 ng/mL
same,concentration at 168 h,"[20]; plasma, inhaled, 2 mg/kg",0 ng/mL
same,concentration at 0.5 h,"[20]; plasma, iv, 2 mg/kg",11000 ng/mL
same,concentration at 2 h,"[20]; plasma, iv, 2 mg/kg",7720 ng/mL
same,concentration at 24 h,"[20]; plasma, iv, 2 mg/kg",800 ng/mL
"CCCCCOc1ccc(-c2ccc(-c3ccc(C(=O)N[C@H]4C[C@@H](O)[C@@H](O)NC(=O)[C@@H]5[C@@H](O)[C@@H](C)CN5C(=O)[C@H]([C@@H](C)O)NC(=O)[C@H]([C@H](O)[C@@H](O)c5ccc(O)cc5)NC(=O)[C@@H]5C[C@@H](O)CN5C(=O)[C@H]([C@@H](C)O)NC4=O)cc3)cc2)cc1 [anidulafungin] ({pTerphenylCO(4''-OnC5H11)}-[Orn(4R-OH,5R-OH)]T[Hyp][hTyr(3S-OH,4S-OH)]T[Pro(3S-OH,4S-Me)]; lactam 1-C)",time levels are maintained above MICs for common pathogens,[21]; rat tissues,≥ 72 h
same,"exposure in tissues (liver, lung, spleen, kidney) relative to plasma",[21]; rat,9-12 fold
same,time to peak concentrations in tissues,[21]; rat,≤ 30 min
"CCCCCOc1ccc(-c2cc(-c3ccc(C(=O)N[C@H]4C[C@@H](O)[C@@H](O)NC(=O)[C@@H]5[C@@H](O)[C@@H](C)CN5C(=O)[C@H]([C@H](O)CC(N)=O)NC(=O)[C@H]([C@H](O)[C@@H](O)c5ccc(O)c(OS(=O)(=O)O)c5)NC(=O)[C@@H]5C[C@@H](O)CN5C(=O)[C@H]([C@@H](C)O)NC4=O)cc3)no2)cc1 [micafungin] (X1-[Orn(4R-OH,5R-OH)]T[Hyp][hTyr(3S-OH,4S-OH,3'-OSO3H)][Gln(3R-OH)][Pro(3S-OH,4S-Me)]; lactam 1-C)",exposure in kidney relative to plasma,[22],3.4 fold
same,exposure in liver relative to plasma,[22],1.6 fold
same,exposure in lung relative to plasma,[22],2.9 fold
